target: T1, TGF-β Type II (RII WT) receptor (Homo sapiens, UniProt P37173); assay: TGF-β Receptor II (RII WT) in vitro kinase reaction; format: biochemical; settings: 6×-HIS cytoplasmic kinase domain, 4 uM ATP, 30° C., 40 min
T1 construct: The 6×-HIS tagged cytoplasmic kinase domain of each receptor was expressed and purified from Sf9 insect cell lysates; 6xHis; made in house; host or cells: Sf9 insect cells
T1 sequence (P37173 244-544 limits assumed): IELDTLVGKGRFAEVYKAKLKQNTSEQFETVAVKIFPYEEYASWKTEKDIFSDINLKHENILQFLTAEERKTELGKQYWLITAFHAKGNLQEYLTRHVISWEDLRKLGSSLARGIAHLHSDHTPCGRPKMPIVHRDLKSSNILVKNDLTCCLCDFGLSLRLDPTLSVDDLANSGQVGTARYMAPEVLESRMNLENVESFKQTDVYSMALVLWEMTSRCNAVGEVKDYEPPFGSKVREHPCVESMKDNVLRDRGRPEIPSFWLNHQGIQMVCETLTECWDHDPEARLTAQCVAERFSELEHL
Method: (§1) TGF-β Receptor I and II Purification and in vitro Kinase Reactions
(§2) For TGF-β Type I (RIT204D) and Type II (RII WT) Receptors: The 6×-HIS tagged cytoplasmic kinase domain of each receptor was expressed and purified from Sf9 insect cell lysates as briefly described below:
(§3) Cell pellets after 48-72 hrs of infection were lysed in lysis buffer (LB: 50 mM Tris pH 7.5, 150 mM NaCl, 50 mM NaF, 0.5% NP40 with freshly added 20 mM, β-mercaptoethanol, 10 mM imidazole, 1 mM PMSF, 1×EDTA-free Complete Protease Inhibitor (Boehringer Mannheim).
Cell lysates were clarified: by centrifugation and […] filtered prior to purification by Ni/NTA affinity chromatography (Qiagen).
Equilibrate with 10 CV of LB, load sample, wash with 10 CV RIPA buffer (50 mM Tris pH 7.5, 150 mM NaCl, 1% NP40, 1 mM EDTA, 0.25% sodium deoxycholate, added fresh 20 mM β-mercaptoethanol, 1 mM PMSF), wash with 10 CV LB, wash with 10 CV 1×KB (50 mM Tris pH 7.5, 150 mM NaCl, 4 mM MgCl2, 1 mM NaF, 2 mM β-mercaptoethanol), elute with a linear gradient of 1×KB containing 200 mM Imidazole.
Both enzymes were approximately 90% pure and had autophosphorylation activity.
(§4) Reactions: 170-200 nM enzyme in 1×KB, compound dilution series in 1×KB/16% DMSO (20 uM to 1 nM final concentration with 4% DMSO final concentration), reactions started by adding ATP mix (4 uM ATP/1 uCi ^33P-[…]-ATP final concentrations) in 1×KB.
(§5) Reactions were incubated at 30° C. for 1 hr RIT204D or 40 min for RII WT. Reactions were stopped and quantitated using standard TCA/BSA precipitation onto Millipore FB glass fiber filter plates and by liquid scintillation counting on a MicroBeta JET.

IC50 | Structure (SMILES)
< 20 µM | OCCCSc1ccc2c(-c3c(-c4ccccn4)nn4c3CCC4)ccnc2c1 [3-[4-(2-Pyridin-2-yl-5,6-dihydro-4H-pyrrolo[1,2-b]pyrazol-3-yl)-quinolin-7-ylsulfanyl]-propan-1-ol]
< 20 µM | CNC(=O)c1ccc2c(-c3c(-c4ccccn4)nn4c3CCC4)ccnc2c1 [4-(2-Pyridin-2-yl-5,6-dihydro-4H-pyrrolo[1,2-H]pyrazol-3-yl)-quinoline-7-carboxylic acid methylamide]

target: T2, TGF-β Type I (RIT204D) receptor (Homo sapiens, UniProt P36897, T204D); assay: TGF-β Receptor I (RIT204D) in vitro kinase reaction; format: biochemical; settings: 6×-HIS cytoplasmic kinase domain, 4 uM ATP, 30° C., 1 hr
T2 construct: The 6×-HIS tagged cytoplasmic kinase domain of each receptor was expressed and purified from Sf9 insect cell lysates; 6xHis; made in house; host or cells: Sf9 insect cells
T2 sequence (P36897 148-503 T204D limits assumed): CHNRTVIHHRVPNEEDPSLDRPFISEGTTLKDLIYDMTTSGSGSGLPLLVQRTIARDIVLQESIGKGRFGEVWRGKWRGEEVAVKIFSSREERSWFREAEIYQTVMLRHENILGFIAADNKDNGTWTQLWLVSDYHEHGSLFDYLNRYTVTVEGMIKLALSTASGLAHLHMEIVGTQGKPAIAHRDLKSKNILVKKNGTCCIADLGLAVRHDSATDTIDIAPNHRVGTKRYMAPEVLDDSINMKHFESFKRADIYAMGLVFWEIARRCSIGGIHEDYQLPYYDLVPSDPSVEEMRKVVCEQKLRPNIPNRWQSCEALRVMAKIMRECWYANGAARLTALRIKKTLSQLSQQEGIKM
Method: as §1, §2, §3, §4, §5

IC50 | Structure (SMILES)
< 20 µM | CNC(=O)c1ccc2c(-c3c(-c4ccccn4)nn4c3CCC4)ccnc2c1 [4-(2-Pyridin-2-yl-5,6-dihydro-4H-pyrrolo[1,2-H]pyrazol-3-yl)-quinoline-7-carboxylic acid methylamide]

tested on: TGF-β dependent luciferase production in Mv1Lu C1 cells (p3TP-Lux reporter); assay: MV1LU p3TP-Lux assay; format: cell-based; settings: TGF-β1 10 pM, 16-20 hrs
Text: A stable Mv1Lu clone (C1) containing the p3TP-Lux reporter was created by standard transfection and puromycin selection protocols. This stable clone was used to screen the example compounds for their ability to inhibit TGF-β dependent luciferase production as briefly described below: • 1. Plated Mv1Lu C1 cells in Wallac™ Black Isoplates • 2. Allowed cells to adhere overnight. • 3. Removed media and replaced with 0.5% FBS DMEM media • 4. Added the compound dilution series in 0.5% FBS/DMEM containing 1% DMSO such that the final compound concentration ranged from 20 uM to 0.1 nM and the final DMSO concentration was 0.2%. • 5. Incubated at 37° C./5% CO2 for 2 hrs. • 6. Added 0.5% FBS/DMEM as control or TGF-β1 diluted in 0.5% FBS/DMEM (final concentration of 10 pM) to the −/+ TGF-β wells respectively • 7. Incubated for 16-20 hrs. at 37° C./5% CO2 • 8. Removed media and rinsed 1× with PBS. • 9. Removed PBS and lysed the cells with 1× Passive Lysis Buffer (Promega) at room temperature. • 10. Counted relative luciferase activity on the MicroBeta JET by injecting Luciferase Assay Reagent II (PROMEGA).
The use of the above assay in measuring TGF-β responsive activity is described in Wrana, et al. Cell 71: 1003-1014 (1992).

Structure (SMILES) | IC50
Clc1cc(-c2c(-c3ccccn3)nn3c2CCC3)ccn1 [3-(2-Chloro-pyridin-4-yl)-2-pyridin-2-yl-5,6-dihydro-4H-pyrrolo[1,2-b]pyrazole] | < 20 µM
NNC(=O)c1ccc2nccc(-c3c(-c4ccccn4)nn4c3CCC4)c2c1 [4-(2-Pyridin-2-yl-5,6-dihydro-4H-pyrrolo[1,2-b]pyrazol-3-yl)-quinoline-6-carboxylic acid hydrazide] | < 20 µM
Cc1cccc(-c2nn3c(c2-c2ccnc4ccc(C(C)(C)O)cc24)CCC3)n1 [2-{4-[2-(6-Methyl-pyridin-2-yl)-5,6-dihydro-4H-pyrrolo[1,2-b]pyrazol-3-yl]-quinolin-6-yl}-propan-2-ol] | < 20 µM
Cc1cccc(-c2nn3c(c2-c2cccc4ccccc24)CCC3)n1 [2-(6-methyl-pyridin-2-yl)-3-naphthalen-1-yl-5,6-dihydro-4H-pyrrolo[1,2-b]pyrazole] | < 20 µM
COC(=O)c1ccc2nccc(-c3c(-c4cccc(C)n4)nn4c3CCC4)c2c1 [4-[2-(6-Methyl-pyridin-2-yl)-5,6-dihydro-4H-pyrrolo[1,2-b]pyrazol-3-yl]-quinoline-6-carboxylic acid methyl ester] | < 20 µM

The remaining lines, values ahead:

IC50 | Structure (SMILES)
< 20 µM | Cc1cccc(-c2nn3c(c2-c2ccnc4cc(OCCCCl)ccc24)CCC3)n1 [7-(3-chloro-propoxy)-4-[2-(6-methyl-pyridin-2-yl)-5,6-dihydro-4H-pyrrolo[1,2-b]pyrazol-3-yl]-quinoline]
< 20 µM | OCc1cccc(-c2nn3c(c2-c2ccnc4ccccc24)CCC3)n1 [[6-(3-Quinolin-4-yl-5,6-dihydro-4H-pyrrolo[1,2-b]pyrazol-2-yl)-pyridin-2-yl]-methanol]
< 20 µM | Cc1cccc(-c2nn3c(c2-c2ccc(F)cc2)CC(c2ccc(Cl)cc2)C3)n1 (centres unmarked) [5-(4-Chloro-phenyl)-3-(4-fluoro-phenyl)-2-(6-methyl-pyridin-2-yl)-5,6-dihydro-4H-pyrrolo[1,2-b]pyrazole]

target: T3, p38α/SAPK2α (Homo sapiens, UniProt Q16539); assay: p38α in vitro kinase assay; format: biochemical; settings: 5 nM p38α, 62.5 uM EGFR substrate, 100 uM ATP, 30° C., 40 min
T3 construct: purchased Upstate Biotechnology 14-251
Method: p38α in vitro Kinase Assay
Active p38α/SAPK2α was purchased from Upstate Biotechnology (cat#14-251). A known p38α substrate from EGFR was used in the assay (Young, et al. (1997) JBC 272: 12116-12121).
Reactions were performed in 1× kinase buffer (25 mM Tris-HCl pH 7.5, 5 mM β-glycerophosphate, 2 mM DTT, 0.1 mM Na3VO4, 10 mM MgCl2, 1 uM Microcystin) with 5 nM p38α, 62.5 uM substrate, 40 uM to 0.2 nM compound dilution series in 1×KB/16% DMSO (final 4% DMSO concentration). Reactions were started by addition of 100 uM ATP (final concentration) with 1 uCi ^33P-γ-ATP in 1×KB and incubated at 30° C. for 40 min. Reactions were stopped with H3PO4 and quantitated on Millipore PH phosphocellulose filter plates by liquid scintillation counting on a MicroBeta JET.

T3 sequence (Q16539 whole entry): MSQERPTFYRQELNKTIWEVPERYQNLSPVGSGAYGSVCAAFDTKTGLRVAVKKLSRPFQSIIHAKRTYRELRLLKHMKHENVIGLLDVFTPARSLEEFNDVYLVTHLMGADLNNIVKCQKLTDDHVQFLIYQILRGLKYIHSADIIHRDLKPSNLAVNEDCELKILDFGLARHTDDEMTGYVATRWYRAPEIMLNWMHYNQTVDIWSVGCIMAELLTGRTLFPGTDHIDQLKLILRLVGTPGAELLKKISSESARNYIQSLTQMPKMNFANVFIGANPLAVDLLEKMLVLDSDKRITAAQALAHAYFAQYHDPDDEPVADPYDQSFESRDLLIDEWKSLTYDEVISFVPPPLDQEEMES

Structure (SMILES) | IC50
c1ccc(-c2nn3c(c2-c2ccc4ccccc4c2)CCC3)nc1 [3-Naphthalen-2-yl-2-pyridin-2-yl-5,6-dihydro-4H-pyrrolo[1,2-b]pyrazole] | < 20 µM
Fc1ccc(-c2nn3c(c2-c2ccnc4ccccc24)CCC3)cc1 [4-[2-(4-Fluoro-phenyl)-5,6-dihydro-4H-pyrrolo[1,2-b]pyrazol-3-yl]-quinoline] | < 20 µM
OCCCSc1ccc2c(-c3c(-c4ccccn4)nn4c3CCC4)ccnc2c1 [3-[4-(2-Pyridin-2-yl-5,6-dihydro-4H-pyrrolo[1,2-b]pyrazol-3-yl)-quinolin-7-ylsulfanyl]-propan-1-ol] | < 20 µM
Cc1cccc(-c2nn3c(c2-c2ccc4c(c2)OCO4)CCC3)n1 [3-Benzo[1,3]dioxol-5-yl-2-(6-methyl-pyridin-2-yl)-5,6-dihydro-4H-pyrrolo[1,2-b]pyrazole] | < 20 µM
O=C(NCCc1c[nH]cn1)c1ccc2c(-c3c(-c4ccccn4)nn4c3CCC4)ccnc2c1 [4-(2-Pyridin-2-yl-5,6-dihydro-4H-pyrrolo[1,2-b]pyrazol-3-yl)-quinoline-7-carboxylic acid [2-(1H-imidazol-4-yl)-ethyl]-amide] | < 20 µM
CNC(=O)c1ccc2c(-c3c(-c4ccccn4)nn4c3CCC4)ccnc2c1 [4-(2-Pyridin-2-yl-5,6-dihydro-4H-pyrrolo[1,2-H]pyrazol-3-yl)-quinoline-7-carboxylic acid methylamide] | < 20 µM
CN(C)CC(=O)Nc1ccc2c(-c3c(-c4ccccn4)nn4c3CCC4)ccnc2c1 [2-Dimethylamino-N-[4-(2-pyridin-2-yl-5,6-dihydro-4H-pyrrolo[1,2-b]pyrazol-3-yl)-quinolin-7-yl]-acetamide] | < 20 µM
Cc1cccc(-c2nn3c(c2-c2ccnc4ccc(C(=O)O)cc24)CCC3)n1 [4-[2-(6-Methyl-pyridin-2-yl)-5,6-dihydro-4H-pyrrolo[1,2-b]pyrazol-3-yl]-quinoline-6-carboxylic acid] | < 20 µM

Results, then the compound that gave them:

IC50 | Structure (SMILES)
< 20 µM | CSc1ccc2nccc(-c3c(-c4ccccn4)nn4c3CCC4)c2c1 [6-Methylsulfanyl-4-(2-pyridin-2-yl-5,6-dihydro-4H-pyrrolo[1,2-b]pyrazol-3-yl)-quinoline]
< 20 µM | c1ccc(-c2nn3c(c2-c2ccnc4cc(OCCCn5ccnc5)ccc24)CCC3)nc1 [7-(3-Imidazol-1-yl-propoxy)-4-(2-pyridin-2-yl-5,6-dihydro-4H-pyrrolo[1,2-b]pyrazol-3-yl)-quinoline]
< 20 µM | Cc1cccc(-c2nn3c(c2-c2ccnc4ccc(-c5ccc(F)cc5)cc24)CCC3)n1 [6-(4-Fluoro-phenyl)-4-[2-(6-methyl-pyridin-2-yl)-5,6-dihydro-4H-pyrrolo[1,2-b]pyrazol-3-yl]-quinoline]
< 20 µM | COc1ccc2c(-c3c(-c4ccccn4)nn4c3CCC4)ccnc2c1 [7-Methoxy-4-(2-pyridin-2-yl-5,6-dihydro-4H-pyrrolo[1,2-b]pyrazol-3-yl)-quinoline]
< 20 µM | Cc1cccc(-c2nn3c(c2-c2ccnc4cc(N)ccc24)CCC3)n1 [7-Amino-4-[2-(6-Methyl-pyridin-2-yl)-5,6-dihydro-4H-pyrrolo[1,2-b]pyrazol-3-yl]-quinoline]
< 20 µM | Cc1cccc(-c2nn3c(c2-c2ccc(F)cc2)CC[C@@H]3CC#N)n1 [(R)-[3-(4-Fluoro-phenyl)-2-(6-methyl-pyridin-2-yl)-5,6-dihydro-4H-pyrrolo[1,2-b]pyrazol-6-yl]-acetonitrile]
< 20 µM | CN1CCN(CCCOc2ccc3c(-c4c(-c5ccccn5)nn5c4CCC5)ccnc3c2)CC1 [7-[3-(4-Methyl-piperazin-1-yl)-propoxy]-4-(2-pyridin-2-yl-5,6-dihydro-4H-pyrrolo[1,2-b]pyrazol-3-yl)-quinoline]

From patent US7087626B2, “Pyrrole derivatives as pharmaceutical agents” (Eli Lilly and Company, priority 2001, dated 2006)
